Peptide text beside a SMILES is read from it.
Assays:
Assay type in all cases: cell-based
HIV-1 NL4-3 Q40H = assay: Inhibition of T20-resistant HIV-1 variants: Q40H; conditions: mean ± SD of three independent experiments, SD
Method: (§1) The inhibition of peptides on the HIV-1 entry was determined by single-cycle infection assay as described previously. Briefly, HIV-1 pseudovirus was generated by cotransfecting 293 T cells with an Env-expressing plasmid and a backbone plasmid pSG3^Δenv that encodes Env-defective, luciferase-expressing HIV-1 genome. The supernatants were harvested and filtered 48 h after transfection and 50% tissue culture infectious dose (TCID50) was determined in TZM-bl cells. The peptides were prepared with 3-fold dilutions and mixed with 100 TCID50 viruses and then incubated 1 h at room temperature. The mixture was added to TZM-bl cells (10^4/well) and incubated 48 h at 37°C. The luciferase activity was measured using luciferase assay reagents and a Luminescence Counter (Promega).

HIV-1 NL4-3 V38M = assay: Inhibition of T20-resistant HIV-1 variants: V38M; conditions: mean ± SD of three independent experiments, SD
Method: as §1

HIV-1 NL4-3 WT = assay: Inhibition of T20-resistant HIV-1 variants panel: WT; conditions: mean ± SD of three independent experiments, SD
Method: as §1

HIV-1 NL4-3 I37T = assay: Inhibition of T20-resistant HIV-1 variants: I37T; conditions: mean ± SD of three independent experiments, SD
Method: as §1

HIV-1 NL4-3 V38A = assay: Inhibition of T20-resistant HIV-1 variants: V38A; conditions: mean ± SD of three independent experiments, SD
Method: as §1

HIV-1 NL4-3 I37T/N43K = assay: Inhibition of T20-resistant HIV-1 variants: I37T/N43K; conditions: mean ± SD of three independent experiments
Method: as §1

HIV-1 NL4-3 N43K = assay: Inhibition of T20-resistant HIV-1 variants: N43K; conditions: mean ± SD of three independent experiments, SD
Method: as §1

HIV-1 NL4-3 D36S/V38M = assay: Inhibition of T20-resistant HIV-1 variants: D36S/V38M; conditions: mean ± SD of three independent experiments, SD
Method: as §1

wild-type HIV-1NL4-3 = conditions: wild-type HIV-1NL4-3, 100 TCID50, TZM-bl cells, two days, luciferase; mean ± SD of three independent experiments; SD; read-out: IC50 Replication
Method: The inhibition of peptides on HIV-1 replication was determined by a molecular cloned wild-type HIV-1NL4–3. In brief, the virus stock was harvested and quantified 48 h post-transfection. 100 TCID50 viruses were used to infect TZM-bl cells in the presence or absence of serially diluted peptides. Two days post-infection, the cells were harvested and lysed in reporter lysis buffer and the luciferase activity was measured as described above.

[1] = tested on: molecular clone of HIV-1NL4-3; assay: In vitro selection of HIV-1 resistance in MT-4 cells; conditions: 1.5-2 fold escalating concentrations, 22 passages in 4 months
Method: The in vitro selection of HIV-1 resistance to peptide inhibitors was performed as described previously. Briefly, MT-4 cells were seeded at 1 × 10^4 in RPMI 1640 medium containing 10% fetal bovine serum on 12-well plates. The molecular clone of HIV-1NL4–3 was used to infect the cells in the presence or absence of diluted peptide inhibitors (SC29EK, MT-SC29EK, SC22EK and MT-SC22EK). The cells were incubated at 37°C with 5% CO2 until an extensive cytopathic effect was observed. The culture supernatants were harvested and used for next passage on fresh MT-4 cells with 1.5-2 fold increasing concentrations of peptide. Cells and supernatant were harvested at regular time points and stored at -80°C.

HIV-1NL4-3 pseudovirus = conditions: 100 TCID50, TZM-bl cells, 48 h, luciferase, mean ± SD of three independent experiments, SD, read-out: IC50 Entry
Method: as §1

**Q.** For enfuvirtide, which IC50 (HIV-1 NL4-3 Q40H) is on record?
**A.** 1320 ± 92.3 nM

**Q.** What about the IC50 (HIV-1 NL4-3 V38M) of the same compound?
**A.** 378 ± 41.7 nM

**Q.** What about the IC50 (HIV-1 NL4-3 WT) of the same compound?
**A.** 52.1 ± 8.5 nM

**Q.** What about the IC50 (HIV-1 NL4-3 I37T) of the same compound?
**A.** 552 ± 123 nM

**Q.** What about the IC50 (HIV-1 NL4-3 V38A) of the same compound?
**A.** 1840 ± 56.1 nM

**Q.** And the IC50 (HIV-1 NL4-3 I37T/N43K)?
**A.** > 2250 nM

**Q.** What about the IC50 (HIV-1 NL4-3 N43K) of the same compound?
**A.** 367 ± 47.4 nM

**Q.** And the IC50 (HIV-1 NL4-3 D36S/V38M)?
**A.** 203 ± 12.6 nM

**Q.** What about the IC50 (wild-type HIV-1NL4-3) of the same compound?
**A.** 48.6 ± 1.2 nM

**Q.** What does the source list for `CC[C@H](C)[C@H](NC(=O)[C@H](CC(C)C)NC(=O)[C@H](CCC(=O)O)NC(=O)[C@H](CCC(=O)O)NC(=O)[C@@H](NC(=O)[C@H](CCCCN)NC(=O)[C@H](CCCCN)NC(=O)[C@@H](NC(=O)[C@H](Cc1ccc(O)cc1)NC(=O)[C@H](CCC(=O)O)NC(=O)[C@H](CCC(=O)O)NC(=O)[C@@H](NC(=O)[C@H](CCCCN)NC(=O)[C@H](CCCCN)NC(=O)[C@H](CC(=O)O)NC(=O)[C@H](Cc1c[nH]c2ccccc12)NC(=O)[C@H](CCC(=O)O)NC(=O)[C@H](CCC(=O)O)NC(=O)[C@H](Cc1c[nH]c2ccccc12)NC(=O)[C@@H](NC(=O)[C@H](CCSC)NC(C)=O)[C@@H](C)O)[C@@H](C)CC)[C@@H](C)O)[C@@H](C)CC)C(=O)N[C@@H](CCCCN)C(=O)N[C@@H](CCCCN)C(=O)N[C@@H](CO)C(N)=O` [MT-SC22EK] (Ac-MTWEEWDKKIEEYTKKIEELIKKS-NH2)?
**A.** peptide concentration reached during in vitro selection of resistant virus [1]: ~100 nM; IC50 (HIV-1NL4-3 pseudovirus): 2.1 ± 0.2 nM; IC50 (wild-type HIV-1NL4-3): 1.1 ± 0.1 nM

**Q.** How did the IC50 (HIV-1NL4-3 pseudovirus) turn out when `CC[C@H](C)[C@H](NC(=O)[C@H](CCC(=O)O)NC(=O)[C@H](CCCNC(=N)N)NC(=O)[C@H](CCC(=O)O)NC(=O)[C@H](Cc1c[nH]c2ccccc12)NC(=O)[C@H](CCC(=O)O)NC(=O)[C@H](CCSC)NC(=O)[C@H](Cc1c[nH]c2ccccc12)NC(=O)[C@@H](NC(=O)[C@H](CCSC)NC(=O)[C@H](CCC(=O)O)NC(=O)[C@H](CC(N)=O)NC(=O)[C@H](Cc1c[nH]c2ccccc12)NC(=O)[C@H](CCC(=O)O)NC(=O)[C@@H](NC(C)=O)C(C)C)[C@@H](C)O)C(=O)N[C@@H](CCC(=O)O)C(=O)N[C@@H](CC(N)=O)C(=O)N[C@@H](Cc1ccc(O)cc1)C(=O)N[C@H](C(=O)N[C@@H](CCCCN)C(=O)N[C@@H](CC(C)C)C(=O)N[C@H](C(=O)N[C@@H](Cc1ccc(O)cc1)C(=O)N[C@@H](CCCCN)C(=O)N[C@H](C(=O)N[C@@H](CC(C)C)C(=O)N[C@@H](CCC(=O)O)C(=O)N[C@@H](CCC(=O)O)C(=O)N[C@@H](CO)C(=O)N[C@@H](CCC(N)=O)C(=O)N[C@@H](CCC(=O)O)C(=O)N[C@@H](CCC(N)=O)C(N)=O)[C@@H](C)CC)[C@@H](C)CC)[C@@H](C)O` [CP32M] (Ac-VEWNEMTWMEWEREIENYTKLIYKILEESQEQ-NH2) was run?
**A.** 1.8 ± 0.2 nM

**Q.** And the IC50 (wild-type HIV-1NL4-3)?
**A.** 1 ± 0.2 nM

**Q.** With `CC[C@H](C)[C@H](NC(=O)[C@H](C)NC(=O)[C@H](CCCNC(=N)N)NC(=O)[C@H](CC(=O)O)NC(=O)[C@H](Cc1c[nH]c2ccccc12)NC(=O)[C@H](C)NC(=O)[C@H](CCC(=O)O)NC(=O)[C@H](Cc1c[nH]c2ccccc12)NC(=O)[C@@H](NC(=O)[C@@H](NC(C)=O)[C@@H](C)O)[C@@H](C)O)C(=O)N[C@@H](C)C(=O)N[C@@H](CCC(=O)O)C(=O)N[C@@H](Cc1ccc(O)cc1)C(=O)N[C@@H](C)C(=O)N[C@@H](C)C(=O)N[C@@H](CCCNC(=N)N)C(=O)N[C@H](C(=O)N[C@@H](CCC(=O)O)C(=O)N[C@@H](C)C(=O)N[C@@H](CC(C)C)C(=O)N[C@H](C(=O)N[C@@H](CCCNC(=N)N)C(=O)N[C@@H](C)C(=O)N[C@@H](C)C(=O)N[C@@H](CCC(N)=O)C(=O)N[C@@H](CCC(=O)O)C(=O)N[C@@H](CCC(N)=O)C(=O)N[C@@H](CCC(N)=O)C(=O)N[C@@H](CCC(=O)O)C(=O)N[C@@H](CCCCN)C(=O)N[C@@H](CC(N)=O)C(=O)N[C@@H](CCC(=O)O)C(=O)N[C@@H](C)C(=O)N[C@@H](C)C(=O)N[C@@H](CC(C)C)C(=O)N[C@@H](CCCNC(=N)N)C(=O)N[C@@H](CCC(=O)O)C(=O)N[C@@H](CC(C)C)C(N)=O)[C@@H](C)CC)[C@@H](C)CC` [T2635] as the compound, how does the IC50 (HIV-1NL4-3 pseudovirus) read?
**A.** 1.1 ± 0.1 nM

**Q.** For `CC[C@H](C)[C@H](NC(=O)[C@H](CCC(=O)O)NC(=O)[C@H](CCCNC(=N)N)NC(=O)[C@H](CCC(=O)O)NC(=O)[C@H](Cc1c[nH]c2ccccc12)NC(=O)[C@@H](NC(=O)[C@H](CCC(=O)O)NC(=O)[C@H](Cc1c[nH]c2ccccc12)NC(=O)[C@H](CO)NC(C)=O)[C@@H](C)O)C(=O)N[C@@H](CCC(=O)O)C(=O)N[C@@H](CC(N)=O)C(=O)N[C@@H](Cc1ccc(O)cc1)C(=O)N[C@H](C(=O)N[C@@H](CCCNC(=N)N)C(=O)N[C@@H](CCC(N)=O)C(=O)N[C@H](C(=O)N[C@@H](Cc1ccc(O)cc1)C(=O)N[C@@H](CCCNC(=N)N)C(=O)N[C@H](C(=O)N[C@@H](CC(C)C)C(=O)N[C@@H](CCC(=O)O)C(=O)N[C@@H](CCC(=O)O)C(=O)N[C@@H](CO)C(=O)N[C@@H](CCC(N)=O)C(=O)N[C@@H](CCC(=O)O)C(=O)N[C@@H](CCC(N)=O)C(=O)N[C@@H](CCC(N)=O)C(=O)N[C@@H](CC(=O)O)C(=O)N[C@@H](CCCNC(=N)N)C(=O)N[C@@H](CC(N)=O)C(=O)N[C@@H](CCC(=O)O)C(=O)N[C@@H](CCCNC(=N)N)C(=O)N[C@@H](CC(=O)O)C(=O)N[C@@H](CC(C)C)C(=O)N[C@@H](CC(C)C)C(=O)N[C@@H](CCC(=O)O)C(N)=O)[C@@H](C)CC)[C@@H](C)CC)[C@@H](C)O` [SFT, Sifuvirtide] (Ac-SWETWEREIENYTRQIYRILEESQEQQDRNERDLLE-NH2), which IC50 (HIV-1NL4-3 pseudovirus) is on record?
**A.** 2.6 ± 0.1 nM

**Q.** And the IC50 (wild-type HIV-1NL4-3)?
**A.** 1.5 ± 0.1 nM
